According to patent US8273880B2, “Pyrazole compounds with inhibitory activity against ROS kinase” (Korea Institute of Science and Technology, priority 2009, dated 2012):

Columns and labels:
Format in all cases: biochemical
ROS kinase = ROS kinase (Homo sapiens, UniProt P08922); test: ROS kinase screening (HotSpot, IC50 mode); set-up: purchased Reaction Biology Corporation; details: 10-dose IC50 mode starting from 20 μM; 10 μM ATP; read-out: Inhibitory Activity against ROS (IC50)
Experimental: (§1) Kinase screening was performed using a “HotSpot” assay platform commercially available from Reaction Biology Corporation. For this kinase screening, reaction buffers were based on 20 mM Hepes (pH 7.5), 10 mM MgCl2, 1 mM EGTA, 0.02% Brij35, 0.02 mg/mL BSA, 0.1 mM Na3VO4, 2 mM DTT, and 1% DMSO, with supplementary factors necessary for respective kinase reactions added thereto. In each enzyme reaction, […] of each kinase was used together with a fresh reaction buffer and appropriate supplementary factors. A solution of each compound in DMSO was added in a suitable concentration to the reaction buffer. Kinase reaction started with the introduction of […] (specific activity […]) and continued for 2 hours at room temperature.
The reaction was performed with 10 μM ATP.

JAK1 = biological target: T1, JAK1 (Homo sapiens, UniProt P23458); test: HotSpot kinase screening over 45 different kinases, single dose 10 μM; details: single dose concentration of 10 μM, 10 μM ATP
T1 construct: purchased Reaction Biology Corporation
Experimental: as §1
(§2) 1) Screening of Compounds Over 45 Different Kinases
(§3) Each compound was tested twice at a single dose concentration of 10 μM. […] The reaction was performed with 10 μM ATP.

PLK1 = biological target: T2, PLK1 (Homo sapiens, UniProt P53350); test: as above; details: single dose concentration of 10 μM, 10 μM ATP
T2 construct: purchased Reaction Biology Corporation
Experimental: as §1, §2, §3

RET = biological target: T3, RET (Homo sapiens, UniProt P07949); test: as above; details: single dose concentration of 10 μM, 10 μM ATP
T3 construct: purchased Reaction Biology Corporation
Experimental: as §1, §2, §3

CDK1/cyclinB = biological target: T4, CDK1/cyclinB (Homo sapiens, UniProt P06493); test: as above; details: single dose concentration of 10 μM, 10 μM ATP
T4 construct: purchased Reaction Biology Corporation
Experimental: as §1, §2, §3

FYN = biological target: T5, FYN (Homo sapiens, UniProt P06241); test: as above; details: single dose concentration of 10 μM, 10 μM ATP
T5 construct: purchased Reaction Biology Corporation
Experimental: as §1, §2, §3

IKKa/CHUK = biological target: T6, IKKa/CHUK (Homo sapiens, UniProt O15111); test: as above; details: single dose concentration of 10 μM, 10 μM ATP
T6 construct: purchased Reaction Biology Corporation
Experimental: as §1, §2, §3

c-Kit = biological target: T7, c-Kit (Homo sapiens, UniProt P10721); test: as above; details: single dose concentration of 10 μM, 10 μM ATP
T7 construct: purchased Reaction Biology Corporation
Experimental: as §1, §2, §3

LCK = biological target: T8, LCK (Homo sapiens, UniProt P06239); test: as above; details: single dose concentration of 10 μM, 10 μM ATP
T8 construct: purchased Reaction Biology Corporation
Experimental: as §1, §2, §3

YES = biological target: T9, YES (Homo sapiens, UniProt P07947); test: as above; details: single dose concentration of 10 μM, 10 μM ATP
T9 construct: purchased Reaction Biology Corporation
Experimental: as §1, §2, §3

RAF1 = test: as above; details: single dose concentration of 10 μM, 10 μM ATP
Experimental: as §1, §2, §3

LYN = biological target: T10, LYN (Homo sapiens, UniProt P07948); test: as above; details: single dose concentration of 10 μM, 10 μM ATP
T10 construct: purchased Reaction Biology Corporation
Experimental: as §1, §2, §3

PKCa = biological target: T11, PKCa (Homo sapiens, UniProt P17252); test: as above; details: single dose concentration of 10 μM, 10 μM ATP
T11 construct: purchased Reaction Biology Corporation
Experimental: as §1, §2, §3

BRAF = biological target: T12, BRAF (Homo sapiens, UniProt P15056); test: as above; details: single dose concentration of 10 μM, 10 μM ATP
T12 construct: purchased Reaction Biology Corporation
Experimental: as §1, §2, §3

CHK1 = biological target: T13, CHK1 (Homo sapiens, UniProt O14757); test: as above; details: single dose concentration of 10 μM, 10 μM ATP
T13 construct: purchased Reaction Biology Corporation
Experimental: as §1, §2, §3

FLT1 = biological target: T14, FLT1 (Homo sapiens, UniProt P17948); test: as above; details: single dose concentration of 10 μM, 10 μM ATP
T14 construct: purchased Reaction Biology Corporation
Experimental: as §1, §2, §3

PIM1 = biological target: T15, PIM1 (Homo sapiens, UniProt P11309); test: as above; details: single dose concentration of 10 μM, 10 μM ATP
T15 construct: purchased Reaction Biology Corporation
Experimental: as §1, §2, §3

TRKA/NTRK1 = biological target: T16, TRKA/NTRK1 (Homo sapiens, UniProt P04629); test: as above; details: single dose concentration of 10 μM, 10 μM ATP
T16 construct: purchased Reaction Biology Corporation
Experimental: as §1, §2, §3

MEK1 = biological target: T17, MEK1 (Homo sapiens, UniProt Q02750); test: as above; details: single dose concentration of 10 μM, 10 μM ATP
T17 construct: purchased Reaction Biology Corporation
Experimental: as §1, §2, §3

Aurora A = biological target: T18, Aurora A (Homo sapiens, UniProt O14965); test: as above; details: single dose concentration of 10 μM, 10 μM ATP
T18 construct: purchased Reaction Biology Corporation
Experimental: as §1, §2, §3

EPHA1 = biological target: T19, EPHA1 (Homo sapiens, UniProt P21709); test: as above; details: single dose concentration of 10 μM, 10 μM ATP
T19 construct: purchased Reaction Biology Corporation
Experimental: as §1, §2, §3

JNK1a1 = biological target: T20, JNK1a1 (Homo sapiens, UniProt P45983); test: as above; details: single dose concentration of 10 μM, 10 μM ATP
T20 construct: purchased Reaction Biology Corporation
Experimental: as §1, §2, §3

DAPK1 = biological target: T21, DAPK1 (Homo sapiens, UniProt P53355); test: as above; details: single dose concentration of 10 μM, 10 μM ATP
T21 construct: purchased Reaction Biology Corporation
Experimental: as §1, §2, §3

DNA-PK = biological target: T22, DNA-PK (Homo sapiens, UniProt P78527); test: as above; details: single dose concentration of 10 μM, 10 μM ATP
T22 construct: purchased Reaction Biology Corporation
Experimental: as §1, §2, §3

[1] = compared to enzyme activity in DMSO control

T16 sequence (P04629 33-796): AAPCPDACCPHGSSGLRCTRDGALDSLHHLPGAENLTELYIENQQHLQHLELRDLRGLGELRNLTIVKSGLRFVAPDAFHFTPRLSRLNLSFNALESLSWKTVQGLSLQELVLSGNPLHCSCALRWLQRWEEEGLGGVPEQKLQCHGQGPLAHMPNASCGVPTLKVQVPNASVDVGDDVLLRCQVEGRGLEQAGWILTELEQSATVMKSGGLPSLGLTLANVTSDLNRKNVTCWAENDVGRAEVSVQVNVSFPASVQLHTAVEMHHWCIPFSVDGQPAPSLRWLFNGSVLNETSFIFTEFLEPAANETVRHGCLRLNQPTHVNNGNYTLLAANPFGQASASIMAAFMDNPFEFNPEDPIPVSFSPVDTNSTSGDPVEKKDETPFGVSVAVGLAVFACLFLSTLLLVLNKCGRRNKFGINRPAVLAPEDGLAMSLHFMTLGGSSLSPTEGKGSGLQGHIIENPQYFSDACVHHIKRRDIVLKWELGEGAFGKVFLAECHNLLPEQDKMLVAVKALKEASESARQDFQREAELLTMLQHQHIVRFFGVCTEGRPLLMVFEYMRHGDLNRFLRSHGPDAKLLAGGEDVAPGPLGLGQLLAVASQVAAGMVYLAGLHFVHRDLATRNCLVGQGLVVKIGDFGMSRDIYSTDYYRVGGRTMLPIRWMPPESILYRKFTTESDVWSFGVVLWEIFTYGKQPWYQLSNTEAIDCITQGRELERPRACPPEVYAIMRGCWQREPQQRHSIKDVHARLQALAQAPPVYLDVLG
T18 sequence (O14965 whole entry): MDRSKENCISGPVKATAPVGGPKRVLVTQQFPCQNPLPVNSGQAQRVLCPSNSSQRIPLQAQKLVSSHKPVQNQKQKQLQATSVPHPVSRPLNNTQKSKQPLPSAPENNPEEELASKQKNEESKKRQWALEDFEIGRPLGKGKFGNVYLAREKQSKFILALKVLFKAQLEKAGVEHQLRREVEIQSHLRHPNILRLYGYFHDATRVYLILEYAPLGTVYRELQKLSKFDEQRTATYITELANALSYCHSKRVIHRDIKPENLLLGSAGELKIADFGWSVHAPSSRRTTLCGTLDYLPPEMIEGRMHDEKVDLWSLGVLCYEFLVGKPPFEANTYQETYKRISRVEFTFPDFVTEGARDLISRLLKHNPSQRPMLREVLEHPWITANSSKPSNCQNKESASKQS
T12 sequence (P15056 whole entry): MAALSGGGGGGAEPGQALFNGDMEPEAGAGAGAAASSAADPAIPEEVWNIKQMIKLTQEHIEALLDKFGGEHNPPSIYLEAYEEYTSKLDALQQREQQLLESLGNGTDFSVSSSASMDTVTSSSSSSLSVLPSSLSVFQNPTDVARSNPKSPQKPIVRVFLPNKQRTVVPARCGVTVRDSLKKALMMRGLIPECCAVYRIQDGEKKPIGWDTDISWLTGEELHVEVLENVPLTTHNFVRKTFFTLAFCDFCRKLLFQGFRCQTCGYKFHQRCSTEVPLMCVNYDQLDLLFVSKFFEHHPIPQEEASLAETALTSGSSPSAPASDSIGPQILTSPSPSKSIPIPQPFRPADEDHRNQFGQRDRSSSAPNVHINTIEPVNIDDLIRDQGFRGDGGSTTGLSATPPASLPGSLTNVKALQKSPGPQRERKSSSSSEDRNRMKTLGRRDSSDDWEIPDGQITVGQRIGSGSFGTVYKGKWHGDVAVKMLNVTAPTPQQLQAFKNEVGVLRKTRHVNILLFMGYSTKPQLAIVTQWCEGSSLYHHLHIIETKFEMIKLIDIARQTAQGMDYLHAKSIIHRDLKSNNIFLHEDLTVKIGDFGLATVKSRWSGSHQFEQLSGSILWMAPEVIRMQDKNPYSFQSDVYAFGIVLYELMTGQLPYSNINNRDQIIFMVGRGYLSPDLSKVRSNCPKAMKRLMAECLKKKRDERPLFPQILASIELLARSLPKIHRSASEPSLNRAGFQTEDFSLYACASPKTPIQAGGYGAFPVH
T13 sequence (O14757 whole entry): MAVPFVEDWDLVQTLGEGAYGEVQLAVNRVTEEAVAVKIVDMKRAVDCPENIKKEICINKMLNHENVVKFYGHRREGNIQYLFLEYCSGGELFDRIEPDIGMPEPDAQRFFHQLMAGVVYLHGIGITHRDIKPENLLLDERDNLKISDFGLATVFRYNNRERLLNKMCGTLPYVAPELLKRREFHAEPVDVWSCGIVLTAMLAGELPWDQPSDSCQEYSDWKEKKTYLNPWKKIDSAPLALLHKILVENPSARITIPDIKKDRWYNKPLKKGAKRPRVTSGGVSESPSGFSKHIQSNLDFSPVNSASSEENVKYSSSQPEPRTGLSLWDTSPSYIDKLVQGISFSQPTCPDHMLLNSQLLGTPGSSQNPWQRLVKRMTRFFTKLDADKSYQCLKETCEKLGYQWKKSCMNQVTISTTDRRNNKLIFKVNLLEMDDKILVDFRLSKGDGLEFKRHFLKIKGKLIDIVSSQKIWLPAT
T10 sequence (P07948 whole entry): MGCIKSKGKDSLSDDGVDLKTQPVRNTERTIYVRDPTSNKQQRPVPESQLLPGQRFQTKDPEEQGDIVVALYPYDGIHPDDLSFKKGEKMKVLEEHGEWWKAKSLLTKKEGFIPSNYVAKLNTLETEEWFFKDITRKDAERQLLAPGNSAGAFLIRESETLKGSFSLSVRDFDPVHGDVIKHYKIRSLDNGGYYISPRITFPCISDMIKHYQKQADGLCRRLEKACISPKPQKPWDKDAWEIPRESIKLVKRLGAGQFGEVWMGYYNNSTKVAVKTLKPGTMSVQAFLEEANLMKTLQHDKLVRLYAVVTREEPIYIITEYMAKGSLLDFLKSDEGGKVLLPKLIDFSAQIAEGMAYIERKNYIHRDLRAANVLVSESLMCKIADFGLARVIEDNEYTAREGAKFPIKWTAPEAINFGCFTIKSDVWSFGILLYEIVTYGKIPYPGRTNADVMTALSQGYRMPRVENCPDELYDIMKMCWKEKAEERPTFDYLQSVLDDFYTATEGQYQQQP
T19 sequence (P21709 26-976): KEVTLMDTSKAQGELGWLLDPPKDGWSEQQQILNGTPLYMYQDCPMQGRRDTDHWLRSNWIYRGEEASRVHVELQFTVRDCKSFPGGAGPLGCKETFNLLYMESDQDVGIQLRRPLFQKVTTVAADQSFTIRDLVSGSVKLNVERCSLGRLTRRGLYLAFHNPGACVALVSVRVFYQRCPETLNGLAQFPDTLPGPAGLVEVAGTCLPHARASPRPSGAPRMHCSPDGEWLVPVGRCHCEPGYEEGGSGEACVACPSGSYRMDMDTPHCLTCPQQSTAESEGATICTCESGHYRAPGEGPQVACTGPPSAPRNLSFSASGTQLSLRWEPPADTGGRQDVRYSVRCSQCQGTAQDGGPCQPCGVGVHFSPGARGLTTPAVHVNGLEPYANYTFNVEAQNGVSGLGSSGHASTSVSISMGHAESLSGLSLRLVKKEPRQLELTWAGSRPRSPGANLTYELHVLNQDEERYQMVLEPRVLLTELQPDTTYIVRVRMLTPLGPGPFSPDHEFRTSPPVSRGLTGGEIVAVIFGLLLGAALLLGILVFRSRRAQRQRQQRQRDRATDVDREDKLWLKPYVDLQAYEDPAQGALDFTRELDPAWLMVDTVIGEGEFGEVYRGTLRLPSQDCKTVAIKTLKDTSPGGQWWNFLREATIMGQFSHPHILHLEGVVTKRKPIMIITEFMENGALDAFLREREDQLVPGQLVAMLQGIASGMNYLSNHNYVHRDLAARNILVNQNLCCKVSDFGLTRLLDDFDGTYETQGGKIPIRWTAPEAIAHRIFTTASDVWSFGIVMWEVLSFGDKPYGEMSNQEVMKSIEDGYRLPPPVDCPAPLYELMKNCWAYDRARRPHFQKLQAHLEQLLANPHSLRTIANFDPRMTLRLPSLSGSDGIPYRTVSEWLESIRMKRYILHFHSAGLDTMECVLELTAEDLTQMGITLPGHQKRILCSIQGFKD
T15 sequence (P11309 whole entry): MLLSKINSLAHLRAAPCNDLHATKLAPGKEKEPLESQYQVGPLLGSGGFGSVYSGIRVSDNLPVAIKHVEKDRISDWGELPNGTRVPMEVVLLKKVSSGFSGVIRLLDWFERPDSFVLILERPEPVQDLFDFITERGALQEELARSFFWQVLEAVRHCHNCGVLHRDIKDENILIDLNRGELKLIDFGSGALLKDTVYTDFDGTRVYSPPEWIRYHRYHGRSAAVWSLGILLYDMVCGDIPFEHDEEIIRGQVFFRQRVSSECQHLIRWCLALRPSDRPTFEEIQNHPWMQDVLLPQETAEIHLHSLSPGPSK

Question: How did the IC50 (ROS kinase) turn out when Cc1cc(O)cc(-c2nn(CC#N)cc2-c2cc(NC[C@H](C)O)nc(-c3cccnc3)n2)c1 [Example 10, [4-[6-(2(S)-hydroxypropylamino)-2-pyridin-3-yl-pyrimidin-4-yl]-3-(3-hydroxy-5-methylphenyl)-pyrazol-1-yl]acetonitrile] was run?
Answer: Its IC50 is 199 nM.

Question: What about the inhibition at 10 µM (JAK1) of the same molecule?
Answer: The inhibition at 10 µM was 9.15%.

Question: What about the activity at 10 µM (JAK1; [1]) of the same molecule?
Answer: The activity at 10 µM was 90.8%.

Question: And the inhibition at 10 µM (PLK1)?
Answer: The inhibition at 10 µM was 5.85%.

Question: And the activity at 10 µM (PLK1; [1])?
Answer: Its activity at 10 µM is 94.2%.

Question: What about the inhibition at 10 µM (RET) of the same molecule?
Answer: The inhibition at 10 µM was 6.65%.

Question: What about the activity at 10 µM (RET; [1]) of the same molecule?
Answer: The activity at 10 µM was 93.3%.

Question: What about the inhibition at 10 µM (CDK1/cyclinB) of the same molecule?
Answer: The inhibition at 10 µM was 3.64%.

Question: What about the activity at 10 µM (CDK1/cyclinB; [1]) of the same molecule?
Answer: The activity at 10 µM was 96.4%.

Question: What about the inhibition at 10 µM (FYN) of the same molecule?
Answer: The inhibition at 10 µM was -7.86%.

Question: What about the activity at 10 µM (FYN; [1]) of the same molecule?
Answer: The activity at 10 µM was 108%.

Question: And the inhibition at 10 µM (IKKa/CHUK)?
Answer: The inhibition at 10 µM was 1.37%.

Question: What about the activity at 10 µM (IKKa/CHUK; [1]) of the same molecule?
Answer: Its activity at 10 µM is 98.6%.

Question: What about the inhibition at 10 µM (c-Kit) of the same molecule?
Answer: The inhibition at 10 µM was 2.85%.

Question: What about the activity at 10 µM (c-Kit; [1]) of the same molecule?
Answer: Its activity at 10 µM is 97.2%.

Question: And the inhibition at 10 µM (LCK)?
Answer: The inhibition at 10 µM was 10.3%.

Question: What about the activity at 10 µM (LCK; [1]) of the same molecule?
Answer: The activity at 10 µM was 89.7%.

Question: What about the inhibition at 10 µM (YES) of the same molecule?
Answer: The inhibition at 10 µM was -2.59%.

Question: What about the activity at 10 µM (YES; [1]) of the same molecule?
Answer: The activity at 10 µM was 103%.

Question: What about the “Inhibition (%)” value (RAF1) of the same molecule?
Answer: The value was 20.39%.

Question: And the “Activity (%)” value (RAF1; [1])?
Answer: Its value is 79.61%.

Question: What about the inhibition at 10 µM (LYN) of the same molecule?
Answer: The inhibition at 10 µM was -1.45%.

Question: What about the activity at 10 µM (LYN; [1]) of the same molecule?
Answer: Its activity at 10 µM is 101%.

Question: What about the inhibition at 10 µM (PKCa) of the same molecule?
Answer: Its inhibition at 10 µM is 9.23%.

Question: And the activity at 10 µM (PKCa; [1])?
Answer: Its activity at 10 µM is 90.8%.

Question: What about the inhibition at 10 µM (BRAF) of the same molecule?
Answer: The inhibition at 10 µM was 8.97%.

Question: What about the activity at 10 µM (BRAF; [1]) of the same molecule?
Answer: Its activity at 10 µM is 91%.

Question: And the inhibition at 10 µM (CHK1)?
Answer: Its inhibition at 10 µM is 2.36%.

Question: What about the activity at 10 µM (CHK1; [1]) of the same molecule?
Answer: The activity at 10 µM was 97.6%.

Question: And the inhibition at 10 µM (FLT1)?
Answer: Its inhibition at 10 µM is -1.67%.

Question: What about the activity at 10 µM (FLT1; [1]) of the same molecule?
Answer: Its activity at 10 µM is 102%.

Question: What about the inhibition at 10 µM (PIM1) of the same molecule?
Answer: The inhibition at 10 µM was 5.91%.

Question: What about the activity at 10 µM (PIM1; [1]) of the same molecule?
Answer: Its activity at 10 µM is 94.1%.

Question: What about the inhibition at 10 µM (TRKA/NTRK1) of the same molecule?
Answer: The inhibition at 10 µM was -0.14%.

Question: What about the activity at 10 µM (TRKA/NTRK1; [1]) of the same molecule?
Answer: Its activity at 10 µM is 100%.

Question: And the inhibition at 10 µM (MEK1)?
Answer: The inhibition at 10 µM was -6.97%.

Question: What about the activity at 10 µM (MEK1; [1]) of the same molecule?
Answer: Its activity at 10 µM is 107%.

Question: And the inhibition at 10 µM (Aurora A)?
Answer: Its inhibition at 10 µM is 21.8%.

Question: And the activity at 10 µM (Aurora A; [1])?
Answer: The activity at 10 µM was 78.2%.

Question: What about the inhibition at 10 µM (EPHA1) of the same molecule?
Answer: The inhibition at 10 µM was 23.3%.

Question: What about the activity at 10 µM (EPHA1; [1]) of the same molecule?
Answer: Its activity at 10 µM is 76.7%.

Question: And the inhibition at 10 µM (JNK1a1)?
Answer: The inhibition at 10 µM was 3.83%.

Question: What about the activity at 10 µM (JNK1a1; [1]) of the same molecule?
Answer: Its activity at 10 µM is 96.2%.

Question: And the inhibition at 10 µM (DAPK1)?
Answer: Its inhibition at 10 µM is -1.17%.

Question: What about the activity at 10 µM (DAPK1; [1]) of the same molecule?
Answer: The activity at 10 µM was 101%.

Question: What about the inhibition at 10 µM (DNA-PK) of the same molecule?
Answer: Its inhibition at 10 µM is 6.56%.
